In US9511045B2 (UNIVERSITE D'AUVERGNE CLERMONT I, priority 2010, dated 2016):

Tested on: Male Sprague-Dawley rats
Conditions: 72 hours after IP injection of oxaliplatin
Method: Male Sprague-Dawley rats (Charles River Lab, France), weighing 175 to 200 grams, were placed in a cage with food and water ad libitum, in a temperature-controlled environment at 22° C. with a 12 h/12 h day/night cycle. The experiments were conducted under blind conditions in a calm room by the same experimenter, while taking care to comply with the regulations on animal experimentation.
This low-temperature immersion test made it possible to measure the hypersensitivity to cold in the animals. The bottom third of the rat's tail was immersed in a temperature-controlled bath 10° C. until it was removed or until the “cut-off” set at 30 seconds (Necker and Hellon. 1978 Pain. 4: 231-242).
The experimental data was analyzed using the software program Sigma STAT, version 3.0 for Windows (STAT32 Software Inc., San Diego, Calif.). The kinetics of the reaction times to the temperature-based stimulation were analyzed using a two-factor variance analysis followed by a multiple comparison test to study the change over time. […] The significance threshold was P<0.05.

O=C(O)C(=O)O.[NH-][C@@H]1CCCC[C@H]1[NH-].[Pt+2] [oxaliplatin]
effect on cold sensitivity threshold (10° C.) (FIG. 1): reduced the cold sensitivity threshold | time after which the rat removed its tail (tail immersed in water at 10° C., untreated rat around 12 seconds, cut-off 30 seconds): 7 s
